Laboratory results taken from the supplement of paper PMC10307832.

What was measured:
Assay in all cases: relative viability (nuclei count vs DMSO), 5 days (fraction); higher = more cells survive
[1] = compound: COc1cc(Nc2ncc3c(n2)-c2ccc(Cl)cc2C(c2c(F)cccc2OC)=NC3)ccc1C(=O)O [Alisertib] + CC(=O)c1c(C)c2cnc(Nc3ccc(N4CCNCC4)cn3)nc2n(C2CCCC2)c1=O [Palbociclib] (partner 0.5 µM)
How it was run: (§1)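 For relative viability, nuclei counts in treated wells were divided by those in vehicle wells. Lung cancer cell lines had been pin-tool dosed in 1536-well plates the day after seeding and cultured for 5 days, then fixed and stained in one step (final 0.05% Triton X-100, 1% formaldehyde, 1 ug/ml Hoechst) and imaged at 4×. Doses were one drug alone or a fixed anchor-drug dose plus five library-drug doses (not always all listed) in √10 steps, and values are duplicate-plate medians.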

[2] = compound: COc1cc(Nc2ncc3c(n2)-c2ccc(Cl)cc2C(c2c(F)cccc2OC)=NC3)ccc1C(=O)O [Alisertib] + Cc1nc(NC(=O)N2CCC[C@H]2C(N)=O)sc1-c1ccnc(C(C)(C)C(F)(F)F)c1 [Alpelisib] (partner 2 µM)
How it was run: as §1

[3] = compound: COc1cc(Nc2ncc3c(n2)-c2ccc(Cl)cc2C(c2c(F)cccc2OC)=NC3)ccc1C(=O)O [Alisertib] + Nc1nc2[nH]cc(CCc3ccc(C(=O)N[C@@H](CCC(=O)O)C(=O)O)cc3)c2c(=O)[nH]1 [Pemetrexed] (partner 0.2 µM)
How it was run: as §1

[4] = compound: COc1cc(Nc2ncc3c(n2)-c2ccc(Cl)cc2C(c2c(F)cccc2OC)=NC3)ccc1C(=O)O [Alisertib] + O=C(c1cc(Cc2n[nH]c(=O)c3ccccc23)ccc1F)N1CCN(C(=O)C2CC2)CC1 [Olaparib] (partner 8 µM)
How it was run: as §1

Cell Line | relative viability ([1]; first compound 0.005 µM) | relative viability ([1]; first compound 0.01581 µM) | relative viability ([1]; first compound 0.05 µM) | relative viability ([1]; first compound 0.1581 µM) | relative viability ([1]; first compound 0.5 µM) | relative viability ([2]; first compound 0.005 µM) | relative viability ([2]; first compound 0.01581 µM) | relative viability ([2]; first compound 0.05 µM) | relative viability ([2]; first compound 0.1581 µM) | relative viability ([2]; first compound 0.5 µM) | relative viability ([3]; first compound 0.005 µM) | relative viability ([3]; first compound 0.01581 µM) | relative viability ([3]; first compound 0.05 µM) | relative viability ([3]; first compound 0.1581 µM) | relative viability ([3]; first compound 0.5 µM) | relative viability ([4]; first compound 0.005 µM) | relative viability ([4]; first compound 0.01581 µM) | relative viability ([4]; first compound 0.05 µM) | relative viability ([4]; first compound 0.1581 µM) | relative viability ([4]; first compound 0.5 µM)
NCI-H2405 | 0.497 | 0.504 | 0.495 | 0.317 | 0.257 | 0.817 | 0.707 | 0.699 | 0.42 | 0.248 | 1.01 | 1.03 | 0.871 | 0.308 | 0.295 | 0.715 | 0.787 | 0.794 | 0.351 | 0.251
NCI-H3122 | 0.174 | 0.174 | 0.215 | 0.139 | 0.149 | 0.741 | 0.747 | 0.472 | 0.295 | 0.211 | 0.184 | 0.189 | 0.194 | 0.186 | 0.143 | 0.627 | 0.717 | 0.41 | 0.261 | 0.222
PC-3 [JPC-3] | 0.537 | 0.53 | 0.515 | 0.541 | 0.513 | 0.952 | 0.98 | 0.751 | 0.598 | 0.369 | 1.06 | 0.988 | 0.885 | 0.388 | 0.287 | 1.09 | 1.02 | 0.802 | 0.632 | 0.483
PC-14 | 0.526 | 0.45 | 0.332 | 0.082 | 0.0483 | 0.901 | 0.84 | 0.686 | 0.277 | 0.106 | 0.103 | 0.138 | 0.146 | 0.0731 | 0.052 | 0.23 | 0.225 | 0.13 | 0.0581 | 0.0485
